{"source": "paper PMC9571264", "about": "(Molecules, 2022)", "key": {"[1]": {"tested_on": "HepG2 cancer cells", "test": "Annexin-V-FITC/PI apoptosis/necrosis flow cytometry, HepG2", "assay_type": "cell-based, human", "details": "HepG2, IC50 = 13.14 μM, 48 h", "experimental": "(§1) (See supplementary information for the detailed methodology of flow cytometric analyses, including “FITC/Annexin-V-FITC/PI differential apoptosis/necrosis”, “DNA content-flow cytometry aided cell cycle”, and “Caspase 3/7 green flow cytometry”).\n(§2) Supplementary materials for detailed methodology\n(§3) 2.2.2.1. Flow cytometric analysis\n2.2.2.1.1. FITC/Annexin-V-FITC/PI Differential Apoptosis/Necrosis Assessment Apoptosis and necrosis cell populations are determined using Annexin V-FITC apoptosis detection kit (Abcam Inc., Cambridge Science Park, Cambridge, UK) coupled with 2 fluorescent channels flowcytometry. After treatment with test compounds for 48 h, cells (10^5 cells) are collected by trypsinization and washed twice with ice-cold PBS (pH 7.4). Then, cells are incubated in dark with 0.5 ml of Annexin V-FITC/PI solution for 30 min in dark at room temperature according to manufacturer protocol. After staining, cells are injected via ACEA Novocyte™ flowcytometer (ACEA Biosciences Inc., San Diego, CA, USA) and analyzed for FITC and PI fluorescent signals using FL1 and FL2 signal detector, respectively (λex/em 488/530 […]\nnm for FITC and λex/em 535/617 nm for PI). […]\nNovoExpress™ software (ACEA Biosciences Inc., San Diego, CA, USA).\n(§4) 2.2.2.1.3. Caspase- 3/7 green flow cytometry assay\n(§5) The ability of compounds 4 and 9 to induce the enzymatic activities of caspase 3/7 in HL60 and HepG2 respectively were assayed using caspase 3/7 green flow cytometry assay method. Briefly, control and the tested compounds treated cells (2.5x10^5/mL) were rinsed with ice cold PBS, cell lysates were prepared and subsequently protein"}, "[2]": {"tested_on": "HepG2 cancer cells", "test": "DNA content-flow cytometry cell-cycle analysis, HepG2", "assay_type": "cell-based, human", "details": "HepG2, IC50 = 13.14 μM, 48 h", "experimental": "as §1\nSupplementary materials for detailed methodology […]\n2.2.2.1.2. DNA Content-Flow Cytometry Aided Cell Cycle Analysis\nAfter treatment with test compounds for 48 h, cells (10^5 cells) are collected by trypsinization and washed twice with ice-cold PBS (pH 7.4). Cells are re-suspended in two milliliters of 60% ice-cold ethanol and incubated at 4 °C for 1 h for fixation. Fixed cells are washed twice again with PBS (pH 7.4) and re-suspended in 1 mL of PBS containing 50 μg/mL RNAase A and 10 μg/mL propidium iodide (PI). After 20 min of incubation in dark at 37 C, cells are analyzed for DNA contents using flow cytometry analysis using FL2 (λex/em 535/617 nm) signal detector (ACEA Novocyte™ flowcytometer, ACEA Biosciences Inc., San Diego, CA, USA). For each sample, 12,000 events are acquired. Cell cycle distribution is calculated using ACEA NovoExpress™ software (ACEA Biosciences Inc., San Diego, CA, USA).\nas §4, §5"}, "[3]": {"tested_on": "HepG2 cells", "test": "Agarose gel electrophoresis DNA fragmentation, HepG2", "assay_type": "cell-based, human"}, "[4]": {"tested_on": "caspases 3/7 in HepG2 cells", "test": "Caspase 3/7 green flow cytometry assay, HepG2", "assay_type": "cell-based, human", "details": "HepG2, 48 h; untreated cells 1.32%", "from_the_text": "Apoptosis is a form of cell death programmed by the family of cysteine protease. In response to the various cell death stimuli, a large irreversible proteolytic cascade is triggered and subsequently generated. The effector caspase activity has been evaluated to determine the apoptotic pathway initiated by the tested compounds using the “Cell Event™ Caspase 3/7 Green Detection kit”.\nas §1, §2, §3\n2.2.2.1.1. FITC/Annexin-V-FITC/PI Differential Apoptosis/Necrosis Assessment Apoptosis and necrosis cell populations are determined using Annexin V-FITC apoptosis detection kit (Abcam Inc., Cambridge Science Park, Cambridge, UK) coupled with 2 fluorescent channels flowcytometry. […] After staining, cells are injected via ACEA Novocyte™ flowcytometer (ACEA Biosciences Inc., San Diego, CA, USA) and analyzed for FITC and PI fluorescent signals using FL1 and FL2 signal detector, respectively (λex/em 488/530 nm for FITC and λex/em 535/617 nm for PI). […]\nconcentration was measured. […]"}, "[5]": {"tested_on": "Breast Cancer MCF-7", "test": "MTT cytotoxicity assay, MCF-7", "assay_type": "cell-based", "details": "Homo sapiens, MCF7, 48 h, read-out: IC50 (µM) ± SEM, Breast Cancer MCF-7", "experimental": "Cytotoxic activities of the synthesized derivatives were screened against leukemia (HL60), liver (HepG2), breast (MCF-7), and lung (A549) cancer cell lines and non-cancerous THLE2 and WISH cells at different concentrations [0.01–100 µM] for 48 h using the MTT assay (Table 1).\nHuman promyelocytic leukemia ”HL-60”, human hepatocellular carcinoma “HepG2”, human breast cancer “MCF-7”, human lung cancer “A549” cell lines, and two normal cell lines, THLE-2 as normal adult liver epithelial cells and WISH as normal epithelial cells, were obtained from American Type Culture Collection “Rockville, MD, USA”.\nAccording to the manufacturer’s protocol, the cells were seeded in 96-well plates at a concentration of 5 × 10^4 cells per well (200 µL). Different concentrations of the tested compounds were used to test the cytotoxicity. […] A non-linear regression of curve fit was used to calculate the IC50."}}, "data": [{"smiles": "Cc1c(Br)c(=O)oc2c(Br)c(OC(=O)/C=C/c3ccccc3)c(Br)cc12", "note": "[Compound 8b, (2E)-3,6,8-Tribromo-4-methyl-2-oxo-2H-chromen-7-yl Cinnamate]", "values": [{"measurement": "Increase of apoptotic cell death versus control", "setting": "[1]", "result": 6.88, "unit": "fold"}, {"measurement": "Increase of necrosis-mediated cell death versus control", "setting": "[1]", "result": 1.66, "unit": "fold"}, {"measurement": "Necrosis, cell percentage", "setting": "[1]; control 0.96%", "result": 1.59, "unit": "%"}, {"measurement": "pre-G1 cell population", "setting": "[2]; control 1.71%", "result": 12.56, "unit": "%"}, {"measurement": "G2/M cell population", "setting": "[2]; control 12.34%", "result": 26.05, "unit": "%"}, {"measurement": "G0/G1 cell population", "setting": "[2]; control 53.6%", "result": 42.53, "unit": "%"}, {"measurement": "DNA fragmentation", "setting": "[3]", "result": "Loss of intact DNA fragments"}, {"measurement": "Apoptotic cells due to active caspases 3/7", "setting": "[4]", "result": 6.09, "unit": "%"}, {"measurement": "IC50", "setting": "[5]", "result": "7.35 ± 0.67", "unit": "µM"}]}]}
